10 compounds from PubChem BioAssay AID686966 (The Scripps Research Institute Molecular Screening Center, 2013) can be followed below.

For the assay, the target named is Tyrosine-protein kinase ABL1 (Homo sapiens) + Ras and Rab interactor 1 (Homo sapiens) (UniProt P00519+Q13671). Nature of the assay: inhibitors of Rin1-Abl protein interaction, late-stage follow-up, biochemical, TR-FRET, round 2 (AID 686966). Particulars: TR-FRET Rin1-Abl binding.

A word on the IC50: it is the midpoint of a concentration-inhibition curve.

SMILES strings stand for the structures. Activity calls are given as the source filed them. How the calls were made is not given here.

Tyrosine-protein kinase ABL1 (Homo sapiens) + Ras and Rab interactor 1 (Homo sapiens), sequence (P00519 whole entry, looked up): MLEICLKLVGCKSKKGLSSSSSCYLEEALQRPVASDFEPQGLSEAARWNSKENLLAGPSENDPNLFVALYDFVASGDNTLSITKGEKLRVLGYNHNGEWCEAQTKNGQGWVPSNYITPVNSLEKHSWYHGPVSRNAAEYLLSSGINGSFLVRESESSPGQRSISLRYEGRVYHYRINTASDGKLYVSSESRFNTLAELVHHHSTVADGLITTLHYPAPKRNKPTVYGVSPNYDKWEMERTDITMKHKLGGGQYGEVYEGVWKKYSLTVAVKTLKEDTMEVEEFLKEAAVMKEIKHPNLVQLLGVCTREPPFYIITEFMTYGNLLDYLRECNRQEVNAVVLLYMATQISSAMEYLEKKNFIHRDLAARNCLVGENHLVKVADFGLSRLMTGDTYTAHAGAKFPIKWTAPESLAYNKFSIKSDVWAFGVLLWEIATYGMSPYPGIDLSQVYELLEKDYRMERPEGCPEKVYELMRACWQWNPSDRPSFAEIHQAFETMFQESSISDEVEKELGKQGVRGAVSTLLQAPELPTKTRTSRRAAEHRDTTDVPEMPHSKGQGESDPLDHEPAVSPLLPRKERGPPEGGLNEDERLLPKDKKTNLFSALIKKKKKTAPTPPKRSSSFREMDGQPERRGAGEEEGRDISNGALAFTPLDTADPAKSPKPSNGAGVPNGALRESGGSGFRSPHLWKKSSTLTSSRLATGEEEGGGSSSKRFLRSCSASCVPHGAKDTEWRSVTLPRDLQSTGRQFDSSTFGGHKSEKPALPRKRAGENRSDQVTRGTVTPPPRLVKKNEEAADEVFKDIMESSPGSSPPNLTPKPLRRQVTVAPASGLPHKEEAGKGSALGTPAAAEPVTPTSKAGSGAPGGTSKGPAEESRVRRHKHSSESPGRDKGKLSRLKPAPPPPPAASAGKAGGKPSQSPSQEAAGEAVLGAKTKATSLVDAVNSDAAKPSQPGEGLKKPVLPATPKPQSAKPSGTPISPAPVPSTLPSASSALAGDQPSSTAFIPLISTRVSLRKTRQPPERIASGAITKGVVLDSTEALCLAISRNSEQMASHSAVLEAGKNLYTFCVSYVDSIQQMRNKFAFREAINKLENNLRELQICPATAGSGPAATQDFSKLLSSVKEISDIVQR
Tyrosine-protein kinase ABL1 (Homo sapiens) + Ras and Rab interactor 1 (Homo sapiens), sequence (Q13671 whole entry, looked up): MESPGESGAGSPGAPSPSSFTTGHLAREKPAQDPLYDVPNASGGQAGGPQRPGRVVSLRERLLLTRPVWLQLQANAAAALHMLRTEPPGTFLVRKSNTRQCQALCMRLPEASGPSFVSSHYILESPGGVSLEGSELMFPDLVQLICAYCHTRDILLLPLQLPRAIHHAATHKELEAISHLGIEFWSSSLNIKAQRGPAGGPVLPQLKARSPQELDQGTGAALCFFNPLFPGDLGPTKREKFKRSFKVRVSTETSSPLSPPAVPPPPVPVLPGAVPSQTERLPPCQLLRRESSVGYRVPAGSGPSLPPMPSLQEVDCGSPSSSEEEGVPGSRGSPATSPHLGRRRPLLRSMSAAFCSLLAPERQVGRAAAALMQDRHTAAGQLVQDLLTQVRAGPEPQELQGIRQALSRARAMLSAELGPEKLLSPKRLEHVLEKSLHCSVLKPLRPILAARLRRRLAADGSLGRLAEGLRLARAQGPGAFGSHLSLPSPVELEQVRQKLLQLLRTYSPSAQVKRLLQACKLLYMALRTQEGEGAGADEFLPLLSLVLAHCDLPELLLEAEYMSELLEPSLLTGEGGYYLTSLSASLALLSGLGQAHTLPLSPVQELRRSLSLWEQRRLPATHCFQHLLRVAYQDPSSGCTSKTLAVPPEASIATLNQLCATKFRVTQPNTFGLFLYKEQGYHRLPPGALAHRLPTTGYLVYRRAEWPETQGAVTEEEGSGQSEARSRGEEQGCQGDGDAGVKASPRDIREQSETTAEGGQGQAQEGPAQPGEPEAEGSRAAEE

For the compound `COc1cc(OCc2ccccc2)ccn1`, the IC50 is > 73500 nM (inactive). With `COc1cc(OCc2ccc(F)cc2)ccn1` the entry was “inactive”; with `O=c1cc(OCc2ccccc2)cc[nH]1`, 23.1 nM; with `Cn1ccc(OCc2ccccc2)cc1=O`, > 73500 nM (inactive). With `Cn1ccc(OCc2ccc(F)cc2)cc1=O` the entry was “inactive”; with `COc1ccc(COc2ccnc(OC)c2)cc1`, > 73500 nM (inactive). The value for `COc1ccc(COc2ccn(C)c(=O)c2)cc1` was > 73500 nM (inactive); that for `COc1ccc(COc2cc[nH]c(=O)c2)cc1` was 39.8 nM. Turning to `Nc1cc(OCc2ccccc2)ccn1`, the IC50 was > 73500 nM (inactive). With `O=c1cc(OCc2ccc(F)cc2)cc[nH]1` the figure was 19.4 nM.
